Results on three molecules are retold here after patent US7253211B2, “(R)-chiral halogenated substituted fused heterocyclic amino compounds useful for inhibiting cholesterol ester transfer protein activity” (Pfizer Inc., priority 1999, dated 2007).

Data set [1] concerns the target T1, human CETP (hCETP) (Homo sapiens, UniProt P11597).
T1 construct: expressed in transfected cells; host or cells: transgenic C57Bl/6 mice homozygous for the hCETP gene
T1 sequence (P11597 18-493): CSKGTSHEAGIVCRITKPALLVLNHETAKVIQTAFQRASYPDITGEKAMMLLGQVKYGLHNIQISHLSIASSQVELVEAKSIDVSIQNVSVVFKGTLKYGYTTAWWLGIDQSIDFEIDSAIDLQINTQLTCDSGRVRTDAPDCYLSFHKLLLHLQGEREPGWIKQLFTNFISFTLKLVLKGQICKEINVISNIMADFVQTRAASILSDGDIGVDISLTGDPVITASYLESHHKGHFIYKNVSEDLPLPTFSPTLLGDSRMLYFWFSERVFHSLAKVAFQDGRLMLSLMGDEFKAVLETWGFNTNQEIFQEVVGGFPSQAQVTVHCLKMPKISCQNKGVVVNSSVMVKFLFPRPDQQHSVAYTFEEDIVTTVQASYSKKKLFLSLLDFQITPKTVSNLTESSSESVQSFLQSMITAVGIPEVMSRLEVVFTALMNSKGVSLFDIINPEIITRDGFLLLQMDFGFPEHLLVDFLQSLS
Briefly: Assay of CETP Inhibition In Vivo: CETP-mediated transfer in hCETP mice. The following applies: single oral dose 60 mpk.
Text: C57B1/6 mice that were homozygous for the hCETP gene were maintained on a high fat chow diet, such as TD 88051, as described by Nishina et al. (J Lipid Res., 31, 859-869 (1990)) for at least two weeks prior to the study. Mice received an oral gavage dose of test compound as a suspension in 0.1% methyl cellulose in water or an intravenous bolus injection of test compound in 10% ethanol and 90% polyethylene glycol. Control animals received the vehicle solution without test compound by oral gavage or by an intravenous bolus injection. At the start of the experiment all animals received 0.05 mL of a solution containing [^3H]CE-HDL into the tail vein. [^3H]CE-HDL is a preparation of human HDL containing tritium-labeled cholesteryl ester, and was prepared according to the method of Glenn et al. (Meth. Enzymol., 263, 339-351 (1996)). After 30 minutes, the animals were exsanguinated and blood collected in standard microtainer tubes containing ethylenediamine tetraacetic acid. Blood samples were mixed well and kept on ice until the completion of the experiment. […] The plasma was separated and analyzed by gel filtration chromatography and the relative proportion of [^3H]CE in the VLDL, LDL and HDL regions was determined.
(§1) The percentage [^3H]CE transferred from HDL to LDL and VLDL (% transfer) was calculated based on the total radioactivity in equivalent plasma samples before precipitation.

Data set [2] has as its system plasma HDL. Briefly: Assay of Plasma HDL Elevation In Vivo: lipoprotein profile in hamster. More on the design: species or system Syrian Golden hamsters. The following applies: oral dose 30 mpk qd, 5 days. The protocol: Assay of Plasma HDL Elevation In Vivo.
Syrian Golden hamsters were made hypercholesterolemic by feeding cholesterol supplemented chow for a minimum of two weeks, as described above. Test compounds were administered orally in selected aqueous or oil based vehicles for up to 1 week. Serum was obtained and analyzed by precipitation or size exclusion chromatography for the relative abundance of VLDL, LDL and HDL.

The subject of data set [3] is plasma HDL. Briefly: Assay of Plasma HDL Elevation In Vivo: lipoprotein profile in hCETP mice. Details: species or system C57b1 mouse expressing human CETP. The following applies: oral dose 30 mpk qd, 5 days. The protocol: Alternatively, a strain of C57b1 mouse was made to transgenicaly express human CETP. […] The hCETP mice were made hypercholesterolemic by feeding cholesterol and fat supplemented chow for a minimum of two weeks, as described above. Test compounds were administered orally in selected aqueous or oil based vehicles for up to 1 week. Serum was obtained and analyzed by size exclusion chromatography for the relative abundance of VLDL, LDL and HDL.

Data set [4] relates to plasma HDL. Briefly: Assay of Plasma HDL Elevation In Vivo: rabbits. The protocol:
Alternatively, rabbits were maintained on a normal chow diet. […] Plasma concentrations of drug were detected throughout the duration of the pump infusion in treated animals and averaged 1.2 μg/mL. Periodically, plasma samples were taken and analyzed for triglycerides, total cholesterol, and HDL.

In data set [5] the test system is plasma HDL. Briefly: Assay of Plasma HDL Elevation In Vivo: cynomologous monkeys. The following applies: oral gavage 10 mpk q.d. up to 11 days, corn oil based vehicle. The protocol:
Alternatively, cynomologous monkeys were maintained on a normal chow diet. […] Plasma levels of drug were detected throughout the experiment in treated animals at ranges of 0.1-1.5 μg/mL. Periodically, plasma samples were taken and analyzed for total cholesterol and HDL.

For data set [6], the system named is CETP. Briefly: Assay of CETP Inhibition In Vivo: CETP-mediated transfer in hamster. More on the design: species or system golden Syrian hamsters. The following applies: single oral dose 10 mpk.
Experimental: Assay of CETP Inhibition In Vivo.
Male golden Syrian hamsters were maintained on a diet of chow containing 0.24% cholesterol for at least two weeks prior to the study. For animals receiving intravenous dosing immediately before the experiment, animals were anesthetized with pentobarbital. Anesthesia was maintained throughout the experiment. In-dwelling catheters were inserted into the jugular vein and carotid artery. At the start of the experiment all animals received 0.2 mL of a solution containing [^3H]CE-HDL into the jugular vein. […] After centrifugation, the resulting supernatant (25 μL) containing the HDL was analyzed for radioactivity using a liquid scintillation counter.
as §1
Alternatively, conscious, non-anesthetized animals received an oral gavage dose of test compound as a suspension in 0.1% methyl cellulose in water. At a time determined for each compound at which plasma levels of the test substance reached their peak (Cmax) after oral dosing, the animals were anesthetized with pentobarbital and then dosed with 0.2 mL of a solution containing [^3H]CE-HDL into the jugular vein as described above. […]
In data set [7] the target is T2, CETP (Homo sapiens, UniProt P11597).
T2 sequence (P11597 18-493): T1 sequence (P11597 18-493)
Briefly: Assay of CETP Inhibition Using Purified Components (Reconstituted Buffer Assay). More on the design: made in house; host or cells: CHO cells (serum-free conditioned medium). It is filed as biochemical. The following applies: Reconstituted Buffer Assay; read-out: IC50. The protocol: Assay of CETP Inhibition Using Purified Components (Reconstituted Buffer Assay)
The ability of compounds to inhibit CETP activity was assessed using an in vitro assay that measured the rate of transfer of radiolabeled cholesteryl ester ([^3H]CE) from HDL donor particles to LDL acceptor particles. Details of the assay are provided by Glenn, K. C. et al. (Glenn and Melton, “Quantification of Cholesteryl Ester Transfer Protein (CETP): A) CETP Activity and B) Immunochemical Assay of CETP Protein,” Meth. […] To measure CETP activity, [^3H]CE-labeled-HDL, LDL, CETP and assay buffer (50 mM tris(hydroxymethyl)aminomethane, pH 7.4; 150 mM sodium chloride; 2 mM ethylenediamine-tetraacetic acid (EDTA); 1% bovine serum albumin) were incubated in a final volume of 200 μL, for 2 hours at 37° C. in 96 well plates. […] The inhibitors were then diluted 1:1 with CETP in assay buffer, and then 25 μL of that solution was mixed with 175 μL of lipoprotein pool for assay. Following incubation, LDL was differentially precipitated by the addition of 50 μL of 1% (w/v) dextan sulfate/0.5 M magnesium chloride, mixed by vortex, and incubated at room temperature for 10 minutes. A potion of the solution (200 μL) was transferred to a filter plate (Millipore). After filtration, the radioactivity present in the precipitated LDL was measured by liquid scintillation counting.
This value was defined as the IC50.

In data set [8] the target is T2, CETP. Briefly: Assay of CETP Inhibition in Human Plasma. The data set is classed as biochemical. More on the design: Blood was obtained from healthy volunteers; from tissue; host or cells: human EDTA plasma pool from healthy volunteers. The following applies: human EDTA plasma pool, [3H]CE-HDL, 37° C., 4 hours. The protocol:
Assay of CETP Inhibition in Human Plasma
Blood was obtained from healthy volunteers, recruited from the personnel of Monsanto Company, Saint Louis, Mo. Blood was collected in tubes containing EDTA (EDTA plasma pool). The EDTA human plasma pool, previously stored at −20° C., was thawed at room temperature and centrifuged for 5 minutes to remove any particulate matter. […] Equal volumes (396 μL) of the plasma containing the [^3H]CE-HDL were added by pipette into micro tubes (Titertube®, Bio-Rad laboratories, Hercules, Calif.). Inhibitor compounds, dissolved as 20-50 mM stock solutions in DMSO, were serially diluted in DMSO (or an alternative solvent in some cases, such as dimethylformamide or ethanol). Four μL of each of the serial dilutions of inhibitor compounds or DMSO alone were then added to each of the tubes containing plasma (396 μL). After mixing, triplicate aliquots (100 μL) from each plasma tube were then transferred to wells of 96-well round-bottomed polystyrene microtiter plates (Corning, Corning, N.Y.). Plates were sealed with plastic film and incubated at 37° C. for 4 hours. “Test” samples contained plasma with dilutions of inhibitor compounds. “Control” samples contained plasma with DMSO diluted to the same concentration as the test samples, but without inhibitor. “Blank” samples were prepared as “control” samples, but were left in the micro tubes at 4° C. for the 4 hour incubation and were then added to the microtiter wells at the end of the incubation period. VLDL and LDL were precipitated by the addition of 10 μL of precipitating reagent (1% (w/v) dextran sulfate (Dextralip50)/0.5 M magnesium chloride, pH 7.4) to all wells. The wells were mixed on a plate mixer and then incubated at ambient temperature for 10 min. The plates were then centrifuged at 1000×g for 30 min at 10° C. The supernatants (50 μL) from each well were then transferred to Picoplate™ 96 plate wells (Packard, Meriden, Conn.) containing Microscint™-40 (Packard, Meriden, Conn.). The plates were heat-sealed (TopSeal™-P, Packard, Meriden, Conn.) according to the manufacturer's directions and mixed for 30 min. Radioactivity was measured on a microplate scintillation counter (TopCount, Packard, Meriden, Conn.). The maximum percentage transfer in the control wells (% transfer) was determined using the following equation:
[formula] The percentage of transfer relative to the control (% control) was determined in the wells containing inhibitor compounds was determined as follows:
[formula] IC50 values were then calculated from plots of % control versus concentration of inhibitor compound.

Setting [9] is: Alzet pump 30 mg/day/animal, after fourteen days.

Usually inhibition stands for the relative decrease from the control value, in per cent. Lower therefore signals a weak effect. In data set [1], `CCc1cc(Oc2cccc(N(Cc3cccc(OC(F)(F)C(F)F)c3)C[C@@H](O)C(F)(F)F)c2)ccc1Cl` [Example 8, (2R)-3-[[3-(4-chloro-3-ethylphenoxy)phenyl][[3-(1,1,2,2-tetrafluoro-ethoxy)phenyl]methyl]amino]-1,1,1-trifluoro-2-propanol] registered an inhibition at 60 mg/kg of 40%. Besides, in data set [2], the “% Change in Lipoprotein Profile HDL” value is on record as 12%, the “% Change in Lipoprotein Profile LDL” value was −12% and the “% Change in Lipoprotein Profile VLDL” value is reported as −22%. Also, in data set [3], the “% Change in Lipoprotein Profile HDL” value came out at 12% and the “% Change in Lipoprotein Profile LDL” value is 20%. Besides, the “Plasma concentrations of drug (average)” value in data set [4] (Alzet pump 30 mg/day/animal up to 14 days, ethanol:propylene glycol vehicle) was determined as 1200 ng/mL. In data set [4] (setting [9]), the “decrease in HDL compared to pre-dose levels” value was 12%, the “decrease in total cholesterol compared to pre-dose levels” value was determined as 19% and the “increase in triglycerides compared to pre-dose levels” value is on record as 17%. For the same molecule, in data set [5], the “Plasma levels of drug” value is 100 to 1500 ng/mL. For the same molecule, the “% Inhibition of Transfer” value in data set [6] turned out to be 35%.

By IC50 is commonly meant the midpoint of a concentration-inhibition curve. Regarding `O[C@H](CN(Cc1cccc(OC(F)(F)F)c1)c1cccc(Oc2cccc(OC(F)(F)F)c2)c1)C(F)(F)F` [Example 34], the IC50 was 0.076 µM in data set [7] and 1.4 µM in data set [8].

On to `O[C@H](CN(Cc1cccc(OC(F)(F)C(F)F)c1)c1cccc(OCc2cccc(C(F)(F)F)c2)c1)C(F)(F)F` [Example 20, (2R)-3-[[[3-(1,1,2,2-tetrafluoroethoxy)phenyl]methyl][3-[[3-(trifluoromethyl)-phenyl]methoxy]phenyl]amino]-1,1,1-trifluoro-2-propanol], for which the IC50 in data set [7] is 0.027 µM; in data set [8], 0.3 µM.
